Test results taken from US20050070570A1, “Novel potassium channels modulators” (4SC AG, priority 2003, published 2005).

target: BK currents (CHO cells permanently transfected with cloned α-hSlo and β-bSlo) (Homo sapiens, UniProt Q12791); test: Electrophysiological studies: whole-cell patch-clamp of BK currents; type: cell-based; details: ratio of current increase after application of compound (20 μM) relative to the control current before compound application; steady-state
Experimental: Electrophysiological Studies:
CHO cells permanently transfected with cloned α-hSlo and β-bSlo were maintained as described above and used for electrophysiological characterisation. The whole-cell configuration of the patch-lamp technique was used to determine the effect of modulators on BK currents in these cells. The cell line expressing functional BK currents (Zhou et al., Pflügers Arch. 436, p. 725 (1998)) were plated onto glass cover slips with a density of 1-5×10^4 cells/cover slip, incubated (37° C., 5% CO2) and used for patch-lamp experiments within 24-48 h. Cells were bathed in mammalian ringer solutions containing (in mM): 160NaCl, 4.5KCl, 2CaCl2, 1MgCl2, 10HEPES, adjusted to pH 7.4, 290-310 mOsm. The internal pipette solution contained (in mM): 160KCl, 2CaCl2, 1MgCl2, 10 HEPES, EGTA was added to reach a free [Ca^2+]internal=1×10^−6M, adjusted to pH 7.2, 290-310 mOsm. Borosilicate pipettes with a resistance of 2-3 MΩ were filled with the internal solution and mounted on an appropriate holder. […]
After addition of the compounds to the bath solution their modulating effect was determined by the increase or decrease of specific BK currents after reaching steady-state relative to the BK current before application of drugs (see Table II).

Sequence of BK currents (CHO cells permanently transfected with cloned α-hSlo and β-bSlo) (Q12791 whole entry): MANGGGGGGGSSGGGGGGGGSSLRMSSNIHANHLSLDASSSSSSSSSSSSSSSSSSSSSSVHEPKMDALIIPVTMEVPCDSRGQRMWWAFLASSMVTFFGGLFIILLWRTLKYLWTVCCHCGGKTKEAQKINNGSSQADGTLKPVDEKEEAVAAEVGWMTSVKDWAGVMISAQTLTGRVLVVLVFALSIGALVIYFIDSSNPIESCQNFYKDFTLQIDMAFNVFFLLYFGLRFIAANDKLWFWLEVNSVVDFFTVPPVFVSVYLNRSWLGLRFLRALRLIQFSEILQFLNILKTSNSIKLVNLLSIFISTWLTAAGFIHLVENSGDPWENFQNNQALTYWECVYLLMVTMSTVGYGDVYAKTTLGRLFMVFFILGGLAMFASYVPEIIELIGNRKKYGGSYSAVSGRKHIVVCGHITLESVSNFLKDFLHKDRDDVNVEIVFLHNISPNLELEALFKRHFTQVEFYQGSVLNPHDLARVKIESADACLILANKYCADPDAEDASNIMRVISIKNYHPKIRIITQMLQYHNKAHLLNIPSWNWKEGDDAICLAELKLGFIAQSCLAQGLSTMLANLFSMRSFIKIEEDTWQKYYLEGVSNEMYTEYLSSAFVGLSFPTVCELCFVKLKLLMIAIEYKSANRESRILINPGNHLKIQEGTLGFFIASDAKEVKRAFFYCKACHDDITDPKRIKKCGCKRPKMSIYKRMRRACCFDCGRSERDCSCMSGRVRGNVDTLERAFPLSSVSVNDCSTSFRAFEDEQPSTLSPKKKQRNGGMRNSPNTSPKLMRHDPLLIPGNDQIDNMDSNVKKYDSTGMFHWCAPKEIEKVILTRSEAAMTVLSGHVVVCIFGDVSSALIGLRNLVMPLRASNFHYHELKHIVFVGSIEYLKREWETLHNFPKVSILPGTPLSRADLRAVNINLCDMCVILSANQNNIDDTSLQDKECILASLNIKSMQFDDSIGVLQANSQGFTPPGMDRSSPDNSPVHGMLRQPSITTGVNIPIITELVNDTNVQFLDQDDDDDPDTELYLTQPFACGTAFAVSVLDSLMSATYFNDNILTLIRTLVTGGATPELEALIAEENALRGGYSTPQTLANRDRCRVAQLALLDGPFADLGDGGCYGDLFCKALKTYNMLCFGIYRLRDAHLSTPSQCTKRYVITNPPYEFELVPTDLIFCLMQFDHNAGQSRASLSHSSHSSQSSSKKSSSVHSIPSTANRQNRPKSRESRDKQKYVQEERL
Sequence of BK currents (CHO cells permanently transfected with cloned α-hSlo and β-bSlo) (Q28067 whole entry partner): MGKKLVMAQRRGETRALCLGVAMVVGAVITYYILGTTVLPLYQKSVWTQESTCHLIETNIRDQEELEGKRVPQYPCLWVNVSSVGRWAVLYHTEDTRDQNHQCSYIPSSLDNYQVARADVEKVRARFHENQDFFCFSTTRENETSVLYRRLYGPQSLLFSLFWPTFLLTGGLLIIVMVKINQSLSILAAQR

Effect	Compound
+ (<1.2 = +)	COc1cc2c(c(OC)c1)C(c1cccc(OC(F)(F)F)c1)N(C(=O)c1ccc(OC(F)(F)F)cc1)CC2 (stereo not shown) [Compound 30, [6,8-Dimethoxy-1-(3-tifluoromethoxy-phenyl)-3,4-dihydro-1H-isoquinolin-2-yl](4-trifluoromethoxy-phenyl)-metanone]
++ (>1.2 = ++)	COc1cc2c(c(OC)c1)C(C)N(S(=O)(=O)c1cccc([N+](=O)[O-])c1)CC2 (stereo not shown) [Compound 36, 6,8-Dimethoxy-1-methyl-2-(3-nitro-benzenesulfonyl)-1,2,3,4-tetrahydro-isoquinoline]

target: BK channels (CHO cells permanently transfected with cloned hSlo, α-hSlo and β-bSlo) (Homo sapiens, UniProt Q12791); test: Em-Assay: fluorescence membrane potential assay with voltage sensitive dye DiBAC(4)3; type: cell-based; details: ratio of the compound effect (50 μM) compared to the maximal effect of NS004 (25 or 50 μM)
Sequence (Q12791 whole entry): as the sequence (Q12791 whole entry) above
Sequence (Q28067 whole entry partner): as the sequence (Q28067 whole entry partner) above
Source text: The large conductance, voltage-dependent and Ca^2+-activated potassium channel BK is a potassium selective ion channel and belongs to the subfamily of KCa channels. Four BK alpha-subunits form a functional channel that can be regulated by intracellular Ca^2+ concentration, membrane voltage, and other mechanisms like phosphorylation states or beta subunits. To test the biological activity of the compounds, we applied two different techniques, a fluorescence based assay using a voltage sensitive dye (Em-Assay) as well as exploiting electrophysiological methods.
CHO cells permanently transfected with cloned hSlo (α-hSlo and β-bSlo), yielding typical BK potassium currents (Zhou et al., Pflügers Arch., 436: 725-734 (1998), were used for the evaluation of compound activity. Activation or inhibition of BK channels in these cells leads to a change of the electrochemical gradient causing a hyperpolarized or depolarised membrane potential, respectively.
To determine changes in the membrane potential of the cells we used the voltage sensitive dye DiBaC(4)3 (Molecular Probes) in a kinetic assay system using a fluorescent plate reader (Manning and Sontheimer, J. Neurosci. Meth., 91: 73-81 (1999). The anionic bis-oxonol DiBAC(4)3 is a voltage sensitive dye which partitions from the extracellular environment into the cell where it reversibly binds to intracellular proteins, a kinetic process depending on the membrane potential of the cell. At depolarised potentials (i.e. at a reduced K^+ efflux due to blocked K^+ channels) the dye accumulates in the cell leading to an increased fluorescence intensity, due to its increased fluorescence if bound to cellular proteins. At hyperpolarized potentials (i.e. at an increased K^+ efflux due to the opening of K^+ channels), the dye partitions out of the cell causing a decreased fluorescence intensity.
hslo transfected CHO cells where maintained in DMEM supplemented with 10% FCS, 250 μg/ml Geneticin, 100 μg/m Hygromycin, 1×HT-Supplement, and 1×Non-essential Amino Acids and cultured in a humidified CO2 incubator. After trypsination, cells where plated with a density of 5×10^4 cells per well on a clear 96-well plate and incubated for 24 h. Cells where washed once with PBS, once with PBS containing 20 mM HEPES (adjusted to pH 7.4 with NaOH) and 2 μM DiBAC(4)3 (DPBS-DiBAC solution). 180 μl of the dPBS-DiBAC solution was then added to the cells and the plate incubated for 30-60 min at 37° C. During this time the dye could partition into the cells and reach a certain steady-state distribution, depending on the resting membrane potential. Test and reference compounds were stored as DMSO stock solutions and diluted in dPBS-DiBAC solution to the desired concentration.
Fluorescence intensity (Ex.: 485 nm/Em.: 520 nm) of each well was detected in the plate reader (Fluostar, BMG) every 60 seconds. After recording the baseline fluorescence for 7 minutes, 20 μl test- and reference compounds were added and the fluorescence intensity was detected for additional 15 minutes. Background was subtracted, data values were normalized and expressed as a change in fluorescence intensity against time. The change in fluorescence intensity caused by the test compounds was evaluated, compared to the effect of the reference compound NS004, and the ratio was determined (see Table I).

Em effect	Compound
+ (0-1=+)	COc1cc2c(c(OC)c1)C(c1cccc(OC(F)(F)F)c1)N(C(=O)c1ccc(OC(F)(F)F)cc1)CC2 (stereo not shown) [Compound 30, [6,8-Dimethoxy-1-(3-tifluoromethoxy-phenyl)-3,4-dihydro-1H-isoquinolin-2-yl](4-trifluoromethoxy-phenyl)-metanone]
+ (0-1=+)	COc1ccc(C(=O)N2CCc3cc(OC)cc(OC)c3C2c2cccc(OC(F)(F)F)c2)cc1 (stereo not shown) [Compound 31, [6,8-Dimethoxy-1-(3-trifluoromethoxy-phenyl)-3,4-dihydro-1H-isoquinolin-2-yl]-(4-methoxy-phenyl)-methanone]
+ (0-1=+)	COc1cc2c(c(OC)c1)C(c1cccc(OC(F)(F)F)c1)N(C(=O)c1ccc(NC(C)=O)cc1)CC2 (stereo not shown) [Compound 32, N-{4-[6,8-Dimethoxy-1-(3-trifluoro-methoxy-phenyl)-3,4-dihydro-1H-isoquinoline-2-carbonyl]-phenyl}-acetamide]
+ (0-1=+)	COc1cc2c(c(OC)c1)C(c1cccc(OC(F)(F)F)c1)N(S(=O)(=O)c1cc(C(F)(F)F)ccc1[N+](=O)[O-])CC2 (stereo not shown) [Compound 34, 6,8-Dimethoxy-2-(2-nitro-5-trifluoromethyl-benzenesulfonyl)-1-(3-trifluoromethoxy-phenyl)-1,2,3,4-tetrahydro-isoquinoline]
+ (0-1=+)	COc1cc2c(c(OC)c1)C(c1cccc(OC(F)(F)F)c1)N(S(=O)(=O)c1cc(C(F)(F)F)cc(C(F)(F)F)c1)CC2 (stereo not shown) [Compound 35, 2-(3,5-Bis-trifluoromethyl-benzenesulfonyl)-6,8-dimethoxy-1-(3-trifluoromethoxy-phenyl)-1,2,3,4-tetrahydroisoquinoline]
++ (>1-1.5=++)	COc1cc2c(c(OC)c1)C(C)N(S(=O)(=O)c1cccc([N+](=O)[O-])c1)CC2 (stereo not shown) [Compound 36, 6,8-Dimethoxy-1-methyl-2-(3-nitro-benzenesulfonyl)-1,2,3,4-tetrahydro-isoquinoline]
+ (0-1=+)	COc1cc2c(c(OC)c1)C(C)N(S(=O)(=O)c1cc(C(F)(F)F)cc(C(F)(F)F)c1)CC2 (stereo not shown) [Compound 37, 2-(3,5-Bis-trifluoromethyl-benzenesulfonyl)-6,8-dimethoxy-1-methyl-1,2,3,4-tetra-hydroisoquinoline]
+ (0-1=+)	COc1cc2c(c(OC)c1)C(C)N(C(=O)c1cccc([N+](=O)[O-])c1)CC2 (stereo not shown) [Compound 38, (6,8-Dimethoxy-1-methyl-3,4-dihydro-1H-isoquinolin-2-yl)-(3-nitro-phenyl)-methanone]
+ (0-1=+)	COc1cc2c(c(OC)c1)C(C)N(C(=O)c1ccc(OC(F)(F)F)cc1)CC2 (stereo not shown) [Compound 39, (6,8-Dimethoxy-1-methyl-3,4-dihydro-1H-isoquinolin-2-yl)-(4-trifluoro-methoxy-phenyl)-methanone]
+ (0-1=+)	COc1ccc(C(=O)N2CCc3cc(OC)cc(OC)c3C2C)cc1 (stereo not shown) [Compound 40, (6,8-Dimethoxy-1-methyl-3,4-dihydro-1H-isoquinolin-2-yl)-(4-methoxy-phenyl)-methanone]
+ (0-1=+)	(3,5-Bis-trifluoromethoxy-phenyl)-[6,8-dimethoxy-1-(3-trifluoromethoxy-phenyl)-3,4-dihydro-1H-iso-quinolin-2-yl]-methanone [Compound 33]
